Experiments:
[1] = Control experiment: stirring hydrophobic compound with pure water; conditions: for control experiment with water: outcome: compound stirred with water without solubilizer
[2] = Dilution of the clear aqueous composition with an equal volume of water (clarity / emulsification); assay type: physicochemical; conditions: clear composition in aqueous Na-MMG diluted 1:1 with water
Description: It may be desirable to dilute the aqueous compositions with water. The amount of water that can be added while maintaining a clear aqueous solution depends on many factors known to those skilled in the art, including the nature of the hydrophobic organic compound, the particular monoester salt, the concentration of each of these components, and other factors. In general, the desirability of diluting the aqueous composition is determined empirically.

[3] = Solubilization of hydrophobic organic compound in aqueous sodium monooctyl glutarate (Na-MOG); assay type: physicochemical; conditions: MOG 22.6 g, procedure of Example 1
From the text: The procedure of Example 1 is followed except that monooctyl glutarate (MOG, 22.6 g) and p-cymene (5 g) are used. The resulting mixture is a clear, homogeneous solution of p-cymene (˜4.4%) in aqueous sodium monooctyl glutarate (Na-MOG).

[4] = Solubilization of hydrophobic organic compound in aqueous sodium monomenthyl glutarate (Na-MMG); conditions: for concentration of hydrophobic compound in clear, homogeneous solution in aqueous Na-MMG: MMG neutralised with 8.8% aqueous sodium bicarbonate; for times better dissolved in aqueous Na-MMG than in pure water: aqueous Na-MMG vs pure water
Description: Aqueous sodium bicarbonate (98 g, 8.8% solution) is added over about 20 minutes to a stirred mixture of monomenthyl glutarate (“MMG,” 25 g) and dodecane (3.0 g). After the addition is complete and CO2 evolution stops, the mixture is stirred for 2 h and is then allowed to settle. The resulting mixture is a clear, homogeneous solution of dodecane (˜2.5%) in aqueous sodium monomenthyl glutarate (Na-MMG).
A clear aqueous solution of Na-MMG is obtained by reacting monomenthyl glutarate (25 g) with aqueous sodium bicarbonate (98 g of 8.8% solution). […] The mixture stirs for about 2 h and is allowed to cool to ambient temperature. […] Dilution with an equal volume of water produces a solution that remains clear for more than 40 days.
Aqueous sodium bicarbonate (196 g, 8.8% solution) is added to a stirred mixture of monomenthyl glutarate (50 g) and N-ethyl-p-menthane-3-carboxamide (“WS-3,” 2.0 g). After the addition is complete and CO2 evolution stops, the mixture is stirred for 1 h and is then allowed to sit overnight. The resulting mixture is a clear, homogeneous solution of WS-3 (˜0.83%) in aqueous Na-MMG.
More WS-3 (1.0 g) is added to the aqueous composition. The mixture stirs for 1 h and is allowed to stand overnight. The mixture is filtered to remove undissolved crystals (0.6 g).
Dilution with an equal volume of water produces a solution that remains clear for more than 40 days.

[5] = Organoleptic test of physiological cooling effect
From the text: The resulting mixture is a clear, homogeneous solution of WS-3 (˜0.83%) in aqueous Na-MMG.

[6] = Solubilization of hydrophobic organic compound in aqueous sodium monomenthyl succinate (Na-MMS); assay type: physicochemical; conditions: MMS 23.7 g, procedure of Example 1
From the text: The procedure of Example 1 is followed except that monomenthyl succinate (MMS, 23.7 g) and p-cymene (3 g) are used. The resulting mixture is a clear, homogeneous solution of p-cymene (˜2.5%) in aqueous sodium monomenthyl succinate (Na-MMS).

Compound	control experiment with water: outcome [1]	time solution remains clear after dilution with an equal volume of water [2]	concentration of hydrophobic compound in clear, homogeneous solution in aqueous Na-MMG [4]	also measured
Cc1c(C)c2c(c(C)c1O)CCC(C)(CCCC(C)CCCC(C)CCCC(C)C)O2 (stereo not drawn) [α-tocopherol]	fail to produce a homogeneous mixture	more than 40 days	–	concentration of hydrophobic compound in clear, homogeneous solution in aqueous Na-MOG [3]: ~2.6%
CCCCCCCCCCCC [dodecane]	fails to produce a homogeneous mixture	–	~2.5%	undissolved compound recovered after settling ([1]; 12 g stirred with 876 g water for 2 h): 11.6 g; times better dissolved in aqueous Na-MMG than in pure water [4]: at least 50 times; emulsification after dilution with an equal volume of water [2]: emulsifies within two days
Cc1ccc(C(C)C)cc1 [p-cymene]	fail to produce a homogeneous mixture	–	~3.6%	emulsification after dilution with an equal volume of water [2]: ≤ 2 days; concentration of hydrophobic compound in clear, homogeneous solution in aqueous Na-MMS [6]: ~2.5%; concentration of hydrophobic compound in clear, homogeneous solution in aqueous Na-MOG [3]: ~4.4%
CC(C)=CCCC(C)CC#N (stereo not drawn) [citronellyl nitrile]	fail to produce a homogeneous mixture	–	~3.6%	emulsification after dilution with an equal volume of water [2]: immediately produces an emulsion
C=C(C)[C@H]1CC=C(C)CC1 [d-limonene]	fails to produce a homogeneous mixture	–	–	–
C=CC(C)(O)CCC=C(C)C (stereo not drawn) [linalool]	fail to produce a homogeneous mixture	–	–	concentration of hydrophobic compound in clear, homogeneous solution in aqueous Na-MOG [3]: ~2.7%
C=C(C)[C@@H]1CC=C(C)C(=O)C1 [l-carvone]	fail to produce a homogeneous mixture	more than 40 days	~3.6%	–
CC(C)=CCCC(C)CCO (stereo not drawn) [citronellol]	fail to produce a homogeneous mixture	more than 40 days	~3.6%	–

More lines, main results first:

control experiment with water: outcome [1]	time solution remains clear after dilution with an equal volume of water [2]	concentration of hydrophobic compound in clear, homogeneous solution in aqueous Na-MMG [4]	Compound	also measured
–	–	~0.83%	CCNC(=O)[C@@H]1C[C@H](C)CC[C@H]1C(C)C [WS-3, N-ethyl-p-menthane-3-carboxamide]	solubility in pure water ([1]; 20° C.): ~0.03%; times better dissolved in aqueous Na-MMG than in pure water [4]: about 33 times; concentration of WS-3 in filtrate (aqueous Na-MMG) after removing undissolved crystals ([4]; more WS-3 added, stood overnight, filtered): ~1.0%; cooling effect when tested organoleptically ([5]; filtrate, ~1.0% WS-3 in aqueous Na-MMG): strong cooling effect; cooling effect when tested organoleptically ([5]; ~0.83% WS-3 in aqueous Na-MMG, pH 7.4): strong cooling effect
no homogeneous mixture results	more than 40 days	~2.5%	CC(C)[C@@H]1CC[C@@H](C)C[C@H]1O [l-menthol]	menthol content of aqueous solution in pure water control (gas chromatography) ([1]; 12 g in 876 g water, 2 h, initially 47° C. then ambient, filtered): 0.06%; times better dissolved in aqueous Na-MMG than in pure water [4]: at least 40 times; physiological cooling effect (organoleptic test) ([5]; ~2.5% l-menthol solution in aqueous Na-MMG): strong physiological cooling effect
fail to produce a homogeneous mixture	more than 40 days	–	CC(C)[C@@H]1CC[C@@H](C)C[C@H]1OC(=O)[C@H](C)O [l-menthyl lactate]	–
